According to patent US11013696B2, “Lipids and lipid compositions for the delivery of active agents” (Novartis AG, priority 2013, dated 2021):

Legend:
[1] = siRNA encapsulation in lipid nanoparticles (SYBR Gold); assay type: physicochemical; details: Table 2; FVII siRNA in LNP with the cationic lipid
Protocol: The lipid nanoparticles (LNPs) were formed by mixing equal volumes of lipids dissolved in alcohol with siRNA dissolved in a citrate buffer by an impinging jet process. The lipid solution contains a cationic lipid compound of the invention, a helper lipid (cholesterol), an optional neutral lipid (DSPC) and a PEG (PEG) lipid at a concentration of 8-16 mg/mL with a target of 12 mg/mL in an alcohol. The siRNA to total lipid ratio is approximately 0.05 (wt/wt). Where a LNP formulation contains four lipid components, the molar ratios of the lipids ranges from 20 to 70 mole percent for the cationic lipid with a target of 40-60, the mole percent of helper lipid ranges from 20 to 70 with a target of 30 to 50, the mole percent of neutral lipid ranges from 0-30, the mole percent of PEG lipid has a range from 1 to 6 with a target of 2 to 5. The concentration of siRNA solution ranges from 0.7 to 1.0 mg/mL with a target of 0.8 to 0.9 mg/mL in a sodium citrate: sodium chloride buffer pH 4-6, with a target of 4.5-5.5. The LNPs are formed by mixing equal volumes of lipid solution in ethanol with siRNA dissolved in a citrate buffer by an impinging jet process through a mixing device with ID ranging from 0.25 to 2.0 mm at a flow rate from 10 to 640 mL/min. The mixed LNP solution is held at room temperature for 0-24 hrs prior to a dilution step. The solution is then concentrated and diafiltered with suitable buffer by ultrafiltration or dialysis process using membranes with a MW cutoff from 30 to 500 KD. The final product is sterile filtered and stored at 4° C.
The lipid nanoparticles (LNPs) were formed by mixing equal volumes of lipids dissolved in alcohol with siRNA dissolved in a citrate buffer by an impinging jet process. The lipid solution contains a cationic lipid compound of the invention, a helper lipid (cholesterol), an optional neutral lipid (DSPC) and a stealth lipid (5010, S024, S027, or S031) at a concentration of 8-16 mg/mL with a target of 12 mg/mL in an alcohol. The siRNA to total lipid ratio is approximately 0.05 (wt/wt). Where a LNP formulation contains four lipid components, the molar ratios of the lipids ranges from 20 to 70 mole percent for the cationic lipid with a target of 40-60, the mole percent of helper lipid ranges from 20 to 70 with a target of 30 to 50, the mole percent of neutral lipid ranges from 0-30, the mole percent of PEG lipid has a range from 1 to 6 with a target of 2 to 5. The concentration of siRNA solution ranges from 0.7 to 1.0 mg/mL with a target of 0.8 to 0.9 mg/mL in a sodium citrate: sodium chloride buffer pH 4-6, with a target of 4.5-5.5. The LNPs are formed by mixing equal volumes of lipid solution in ethanol with siRNA dissolved in a citrate buffer by an impinging jet process through a mixing device with ID ranging from 0.25 to 2.0 mm at a flow rate from 10 to 640 mL/min. The mixed LNP solution is held at room temperature for 0-24 hrs prior to a dilution step. The solution is then concentrated and diafiltered with suitable buffer by ultrafiltration process using membranes with a MW cutoff from 30 to 500 KD. The final product is sterile filtered and stored at 4° C.
SYBR Gold flourescence reagent is used for the determination of siRNA encapsulation in the DLP's. DLP's with and without triton x-100 are used to determine the free siRNA and total siRNA amounts. DLP's samples with and without triton X-100 were excited at 485 nm and flourescence emission is measured at 530 nm. Encapsulation efficiency is calculated based on the following formula: Encapsulation efficiency:[([…])/(total siRNA concentration)]×100% Encapsulation Data

[2] = Percent encapsulation of mRNA in lipid nanoparticles (Quant-iT Ribogreen); assay type: physicochemical; details: Table 2; leptin mRNA in LNP with the cationic lipid
Protocol: All equipment and disposable supplies are certified free of RNase activity by the manufacturer or rendered RNase free by use of the RNaseZap reagent (LifeTechnologies). mRNA is encapsulated at a cationic lipid amine to mRNA phosphate (N:P) molar ratio of 4:1. Lipids (cationic lipid, DSPC, cholesterol and lipidated PEG or stealth lipid) are dissolved in ethanol. The molar ratios are 40:10:38:2, respectively. The mixture is sonicated briefly, then gently agitated for 5 minutes and then maintained at 37° C. until use. mRNA is exchanged into citrate buffer pH 5.8-6.0 by use of Amicon Ultra-15 centrifugal concentrators, and the final concentration is adjusted to 0.5 mg/ml and held at 37° C. until use. An equal volume of lipids in ethanol, mRNA in citrate buffer, and citrate buffer alone are drawn into disposable syringes. Tubing leading from syringes containing lipids and mRNA are attached to the T junction, and tubing leading from the syringe containing citrate buffer alone is paired with the tubing exiting the T-junction over a collection vessel containing a stir bar on an active stir plate. Syringes are placed in a syringe pump set to expel contents at a flow rate of 1 ml per minute.
The pump is activated, and the collected mRNA in lipid nanoparticles is transferred to SnakeSkin dialysis tubing (10,000 MWCO, Thermo Scientific). Material is dialyzed against RNAse- and pyrogen-free 1× phosphate buffered saline overnight at 4° C.
Percent encapsulation of mRNA in lipid nanoparticles is determined using the Quant-iT Ribogreen RNA Assay kit (Life Technologies). The LNP-mRNA suspension is assayed in buffer (mRNA outside the particle), and buffer plus Triton X-100 detergent (total mRNA). The difference calculated is the mRNA inside the particle. Prepare a 1000 ng/mL stock from the RNA provided in the kit and use this to generate a standard curve (0 ng/ml, 15.63-1000 ng/ml) in TE and TE+0.75% Triton X-100. Prepare LNP-mRNA samples in TE buffer and TE buffer +0.75% Triton X-100 with appropriate dilution so that reading is in the range of standard curve (400-2,000 fold). In a 384-well plate (Costar non-treated #3573) add 0.04 ml of standard (in duplicate) or sample (in triplicate) per well. Dilute Ribogreen reagent 240-fold in TE buffer and add 0.06 ml per well. Mix contents of wells and measure fluorescence (excitation=480 nm, emission=520 nm). Subtract background values (no RNA) from standard and test sample values and determine the concentrations of RNA in the samples using the standard curves. Determine the percent encapsulation of the sample by dividing the difference in concentrations between sample+triton and sample in buffer alone by the sample+triton concentration.

SMILES	% encapsulation siRNA FVII [1] [%]	% encapsulation mRNA Leptin [2] [%]
CCCCC/C=C\C/C=C\CCCCCCCCOC(=O)OCCC(CCCCCCCC/C=C\C/C=C\CCCCC)OC(=O)CCN(C)C (stereo not shown) [Example 54, (12Z,15Z)-1-((((9Z,12Z)-octadeca-9,12-dien-1-yloxy)carbonyl)oxy)henicosa-12,15-dien-3-yl 3-(dimethylamino)propanoate]	88.6	
CCCCCCCCCCCCC(CCOC(=O)C=C(CCCCCCCC)CCCCCCCC)OC(=O)OCCCN(C)C (stereo not shown) [Example 25, 3-(((3-(dimethylamino)propoxy)carbonyl)oxy)pentadecyl 3-octylundec-2-enoate]	87.1	
CCCCC/C=C\C/C=C\CCCCCCCC(=O)OCCC(CCCCCCCCCCCC)OC(=O)OCCCN(C)C (stereo not shown) [Example 43, (9Z,12Z)-3-(((3-(dimethylamino)propoxy)carbonyl)oxy)pentadecyl octadeca-9,12-dienoate]	86.8	
CCCCCCCCC(CCCCCCCC)CC(CCCCOC(=O)CCCCCCC)OC(=O)OCCCN(C)C (stereo not shown) [Example 71, 5-(((3-(dimethylamino)propoxy)carbonyl)oxy)-7-octylpentadecyl octanoate]	86.7	
CCCCCCCCCCCCC(CCOC(=O)CCCC(CCCCCCC)CCCCCCC)OC(=O)OCCCN(C)C (stereo not shown) [Example 29, 3-(((3-(dimethylamino)propoxy)carbonyl)oxy)pentadecyl 5-heptyldodecanoate]	86.1	
CCCCCCCCCCCCC(COC(=O)CCC(OCC(CC)CCCC)OCC(CC)CCCC)OC(=O)OCCCN(CC)CC (stereo not shown) [Example 48, 2-(((3-(diethylamino)propoxy)carbonyl)oxy)tetradecyl 4,4-bis((2-ethylhexyl)oxy)butanoate]	89.3	
CCCCC/C=C\C/C=C\CCCCCCCCC(CCOC(=O)CCCC(CCCCCCC)CCCCCCC)OC(=O)CCCN(C)C (stereo not shown) [Example 51, (12Z,15Z)-3-((4-(dimethylamino)butanoyl)oxy)henicosa-12,15-dien-1-yl 5-heptyldodecanoate]	89.2	
CCCCCCCCCCCCC(CCC(=O)OC(COC(=O)CCCCCCCCC)COC(=O)CCCCCCCCC)OC(=O)OCCCN(CC)CC (stereo not shown) [Example 90, 2-((4-(((3-(diethylamino)propoxy)carbonyl)oxy)hexadecanoyl)oxy)propane-1,3-diyl bis(decanoate)]	91.4	
CCCCCCCCCCCCC(CCOC(=O)CCCCC(OCCCCCCCC)OCCCCCCCC)OC(=O)OCCCN1CCCCC1 (stereo not shown) [Example 107, 3-(((3-(piperidin-1-yl)propoxy)carbonyl)oxy)pentadecyl 6,6-bis(octyloxy)hexanoate]		94.5
CCCCCCCCCCC(CCOC(=O)CCCCC(OCCCCCCCC)OCCCCCCCC)OC(=O)OCCCN(CC)CC (stereo not shown) [Example 126, 3-(((3-(diethylamino)propoxy)carbonyl)oxy)tridecyl 6,6-bis(octyloxy)hexanoate]		97.4
CCCCC/C=C\C/C=C\CCCCCCCCC(CCOC(=O)CCCCC(OCCCCCCCC)OCCCCCCCC)OC(=O)OCCCN(CC)CC (stereo not shown) [Example 127, (12Z,15Z)-3-(((3-(diethylamino)propoxy)carbonyl)oxy)henicosa-12,15-dien-1-yl 6,6-bis(octyloxy)hexanoate]		96.7
CCCCCCCCCCCCC(CCOC(=O)OCCCC(OCCCCCCCC)OCCCCCCCC)OC(=O)OCCCN(CC)CC (stereo not shown) [Example 130, 4,4-bis(octyloxy)butyl (3-(diethylamino)propyl) pentadecane-1,3-diyl dicarbonate]		97.8
CCCCCCCCCCCCC(CCOC(=O)CCCCC(OCCCCCCCC)OCCCCCCCC)OC(=O)C1(C)CCN(C)CC1 (stereo not shown) [Example 122, 1-((6,6-bis(octyloxy)hexanoyl)oxy) pentadecan-3-yl 1,4-dimethylpiperidine-4-carboxylate]		97.5
CCCCCCCCCCCCC(CCOC(=O)CCCCC(OCCCCCCCC)OCCCCCCCC)OC(=O)[C@@H]1CCCN1C (stereo partly drawn) [Example 118, (2S)-1-((6,6-bis(octyloxy)hexanoyl)oxy)pentadecan-3-yl 1-methylpyrrolidine-2-carboxylate]		12.8
CCCCCCCCCCCCC(CCOC(=O)CCCCC(OCC(CCC)CCC)OCC(CCC)CCC)OC(=O)OCCCN(CC)CC (stereo not shown) [Example 114, 3-(((3-(diethylamino)propoxy)carbonyl)oxy)pentadecyl 6,6-bis((2-propylpentyl)oxy)hexanoate]		98.4
CCCCCCCCCCCCC(CCOC(=O)CCCCC(OCCCCCCCC)OCCCCCCCC)OC(=O)OCCCN1CCOCC1 (stereo not shown) [Example 112, 3-(((3-morpholinopropoxy)carbonyl)oxy) pentadecyl 6,6-bis(octyloxy) hexanoate]		32.9
CCCCCCCCCCCCC(CCOC(=O)CCCCC(OCCCCCCCC)OCCCCCCCC)OC(=O)CCCCN(CC)CC (stereo not shown) [Example 123, 3-((5-(diethylamino)pentanoyl)oxy)pentadecyl 6,6-bis(octyloxy)hexanoate]		83.8
CCCCCCCCCCCCC(CCCOC(=O)CCCCC(COC(=O)CCCCCCC)COC(=O)CCCCCCC)OC(=O)C1(C)CCN(C)C1 (stereo not shown) [Example 132, 2-(5-((4-((1,3-dimethylpyrrolidine-3-carbonyl)oxy)hexadecyl)oxy)-5-oxopentyl)propane-1,3-diyl dioctanoate]		95.5
CCCCCCCCCCCCC(CCOC(=O)CCCCC(OCCCCCCCC)OCCCCCCCC)OC(=O)[C@H]1CCCN1C (stereo partly drawn) [Example 117, (2R)-1-((6,6-bis(octyloxy)hexanoyl)oxy) pentadecan-3-yl 1-methyl pyrrolidine-2-carboxylate]		5.0
